Patent US9326978B2, “A3 adenosine receptor allosteric modulators” (The United States of America, Represented by the Secretary, …, priority 2006, dated 2016)

Columns and labels:
human A1AR = human A1AR (Homo sapiens (Human), UniProt P30542); experiment: Binding assay to the human A1AR ([3H]R-PIA); details: [3H]R-PIA (2.0 nM), CHO cells, Table 2; for Ki: read-out: Ki(hA1AR); for inhibition at 10 µM: 1 h, read-out: hA1AR % displ. at 10 μM
Procedure: (§1) CHO (Chinese hamster ovary) cells expressing the recombinant human ARs (HEK-293 cells were used for the human A2AAR) were cultured in DMEM and F12 (1:1) supplemented with 10% fetal bovine serum, 100 units/ml penicillin, […] streptomycin and 2 μmol/ml glutamine. Cells were harvested by trypsinization. After homogenization and suspension, cells were centrifuged at 500 g for 10 min, and the pellet was re-suspended in 50 mM Tris.HCl buffer (pH 7.4) containing 10 mM MgCl2. The suspension was homogenized with an electric homogenizer for 10 sec, and was then re-centrifuged at 20,000 g for 20 min at 4° C. The resultant pellets were resuspended in buffer in the presence of 3 Units/mL adenosine deaminase, and the suspension was stored at −80° C. until the binding experiments. The protein concentration was measured using the Bradford assay.
(§2) For binding to the human A1AR, [^3H]R-PIA (2 nM) was incubated with membranes (40 μg/tube) from CHO cells stably expressing the human A1AR at 25° C. for 60 min in 50 mM Tris.HCl buffer (pH 7.4; MgCl2, 10 mM) in a total assay volume of 200 μL. Nonspecific binding was determined using 10 μM of N^6-cyclopentyladenosine. For human A2A AR binding, membranes (20 μg/tube) from HEK-293 cells stably expressing the human A2A AR were incubated with 15 nM [^3H]CGS21680 at 25° C. for 60 min in 200 μL of 50 mM Tris.HCl, pH 7.4, containing 10 mM MgCl2. N-5′-ethyluronamidoadenosine (10 μM) was used to define nonspecific binding. Reaction was terminated by filtration with GF/B filters.

human A2A AR = human A2A AR (Homo sapiens (Human), UniProt P29274); experiment: Binding assay to the human A2A AR ([3H]CGS21680); details: [3H]CGS 21680 (15 nM), HEK293 cells, Table 2; for Ki: read-out: Ki(hA2AAR)
Procedure: as §1, §2

hA2BAR = hA2BAR (Homo sapiens (Human), UniProt P29275); experiment: Effect on NECA-induced cyclic AMP accumulation at A2B receptor; also: NECA (150 nM)-induced cyclic AMP accumulation; format: cell-based; details: read-out: hA2BAR % inhib. at 10 μM
human A3AR = human A3AR (Homo sapiens (Human), UniProt P0DMS8); experiment: Competitive binding assay to the human A3AR ([125I]I-AB-MECA); details: for inhibition at 10 µM: 1 h, read-out: hA3AR % displ. at 10 μM; for inhibition at 10 µM / Ki: [125I]I-AB-MECA (0.5 nM), CHO cells, Table 2; for Ki: read-out: Ki(hA3AR); for affinity to orthosteric versus allosteric binding sites (selective affinity): orthosteric sites of A1, A2A, A2B, A3 receptors vs allosteric site of A3 adenosine receptor
Procedure: as §1
Each tube in the competitive binding assay contained 100 μl membrane suspension (20 μg protein), 50 μl [^125I]-AB-MECA (0.5 nM), and 50 μl of increasing concentrations of the test ligands in Tris.HCl buffer (50 mM, pH 8.0) containing 10 mM MgCl2, 1 mM EDTA. Nonspecific binding was determined using 10 μM of 5′-N-ethylcarboxamidoadenosine in the buffer. The mixtures were incubated at 25° C. for 60 min. Binding reactions were terminated by filtration through Whatman GF/B filters under reduced pressure using a MT-24 cell harvester (Brandell, Gaithersburgh, Md., USA). Filters were washed three times with 9 mL ice-cold buffer. Radioactivity was determined in a Beckman 5500B γ-counter.

human A3ARs [1] = molecular target: T1, human A3ARs (Homo sapiens (Human), UniProt P0DMS8); experiment: Dissociation kinetics of [125I]I-AB-MECA from human A3ARs; format: binding; details: 0.5 h, % decrease of dissociation at 30 min, residual binding of [125I]AB-MECA after 30 min = 100%, Table 2, read-out: hA3AR Ag. Dissociation at 10 μM
Procedure: The dissociation of [^125I]I-AB-MECA was measured as follows. Membranes (20 μg) were preincubated at 25° C. with 0.5 nM [^125I]I-AB-MECA, in a total volume of 100 μl of Tris-HCl buffer (50 mM, pH 8.0) containing 10 mM MgCl2, and 1 mM EDTA for 60 min. The dissociation was then initiated by the addition of 3 μM Cl-IB-MECA with or without allosteric modulators. The time course of dissociation of total binding was measured by rapid filtration at appropriate time intervals. Nonspecific binding was measured after 60-min incubation in the presence of 3 μM Cl-IB-MECA. Further assay was as described above.

human A3ARs [2] = molecular target: T1, human A3ARs; experiment: Cyclic AMP accumulation assay, efficacy at hA3AR; format: cell-based; details: compared to maximal effect by 2-Cl-IB-MECA alone (control = 100%)
Procedure: Intracellular cyclic AMP levels were measured with a competitive protein binding method (Nordstedt and Fredholm, 1990). CHO cells that expressed recombinant human A3ARs were harvested by trypsinization. After centrifugation and resuspension in medium, cells were plated in 24-well plates in 0.5 ml medium. After 24 hr, the medium was removed and cells were washed three times with 1 ml DMEM, containing 50 mM HEPES, pH 7.4. Cells were then treated with agonists and/or test compounds in the presence of rolipram (10 μM) and adenosine deaminase (3 units/ml). After 45 min forskolin (10 μM) was added to the medium, and incubation was continued an additional 15 min. The reaction was terminated by removing the supernatant, and cells were lysed upon the addition of 200 μL of 0.1 M ice-cold HCl. The cell lysate was resuspended and stored at −20° C. For determination of cyclic AMP production, protein kinase A (PKA) was incubated with [^3H]cyclic AMP (2 nM) in K2HPO4/EDTA buffer (K2HPO4, 150 mM; EDTA, 10 mM), 20 μL of the cell lysate, and 30 μL 0.1 M HCl or 50 μL of cyclic AMP solution (0-16 pmol/200 μL for standard curve). Bound radioactivity was separated by rapid filtration through Whatman GF/C filters and washed once with cold buffer. Bound radioactivity was measured by liquid scintillation spectrometry.

hA2BAR, sequence (P29275 whole entry): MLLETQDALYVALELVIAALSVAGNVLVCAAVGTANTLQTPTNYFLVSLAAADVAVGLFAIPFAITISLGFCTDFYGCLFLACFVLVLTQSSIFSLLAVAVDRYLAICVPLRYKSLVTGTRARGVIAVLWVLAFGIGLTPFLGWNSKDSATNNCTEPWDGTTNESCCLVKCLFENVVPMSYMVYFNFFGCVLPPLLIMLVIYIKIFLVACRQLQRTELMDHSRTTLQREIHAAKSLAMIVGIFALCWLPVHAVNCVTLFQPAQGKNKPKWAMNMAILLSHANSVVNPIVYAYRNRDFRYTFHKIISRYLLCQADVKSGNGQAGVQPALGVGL
human A1AR, sequence (P30542 whole entry): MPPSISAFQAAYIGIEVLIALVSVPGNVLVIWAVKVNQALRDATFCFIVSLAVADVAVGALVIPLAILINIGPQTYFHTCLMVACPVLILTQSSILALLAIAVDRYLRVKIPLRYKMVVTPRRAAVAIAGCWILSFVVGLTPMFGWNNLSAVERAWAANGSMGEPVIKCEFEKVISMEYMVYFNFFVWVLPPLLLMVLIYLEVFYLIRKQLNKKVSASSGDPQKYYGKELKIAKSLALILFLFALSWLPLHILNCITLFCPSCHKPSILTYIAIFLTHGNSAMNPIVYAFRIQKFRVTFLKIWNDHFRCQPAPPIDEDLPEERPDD
T1 sequence (P0DMS8 whole entry): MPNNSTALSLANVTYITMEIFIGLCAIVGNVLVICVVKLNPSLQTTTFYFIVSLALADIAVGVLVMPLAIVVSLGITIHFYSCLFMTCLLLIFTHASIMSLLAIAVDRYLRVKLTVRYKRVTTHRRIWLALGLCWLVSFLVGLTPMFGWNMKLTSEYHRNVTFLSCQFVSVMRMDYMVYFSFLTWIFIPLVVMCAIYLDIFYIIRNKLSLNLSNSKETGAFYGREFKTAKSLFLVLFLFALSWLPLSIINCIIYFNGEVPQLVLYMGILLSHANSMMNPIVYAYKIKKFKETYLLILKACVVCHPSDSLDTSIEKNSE
human A3AR, sequence (P0DMS8 whole entry): as above
human A2A AR, sequence (P29274 whole entry): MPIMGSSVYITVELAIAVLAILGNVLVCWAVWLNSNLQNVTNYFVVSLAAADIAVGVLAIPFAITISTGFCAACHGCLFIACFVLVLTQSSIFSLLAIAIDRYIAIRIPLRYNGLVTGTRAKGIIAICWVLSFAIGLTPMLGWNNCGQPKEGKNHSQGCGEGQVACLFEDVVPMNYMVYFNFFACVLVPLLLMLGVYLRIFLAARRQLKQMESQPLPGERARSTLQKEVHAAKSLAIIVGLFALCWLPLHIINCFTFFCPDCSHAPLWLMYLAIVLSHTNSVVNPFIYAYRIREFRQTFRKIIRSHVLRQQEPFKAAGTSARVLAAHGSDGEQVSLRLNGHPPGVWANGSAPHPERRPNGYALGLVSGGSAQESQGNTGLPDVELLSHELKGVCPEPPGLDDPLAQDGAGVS

Ki (human A1AR) | Ki (human A2A AR) | inhibition at 10 µM (hA2BAR) | inhibition at 10 µM (human A3AR) | Ki (human A3AR) | activity at 10 µM (human A3ARs [1]) | % Increase of efficacy at hA3AR at 10 μM (human A3ARs [2]) | melting point | hA2AAR % displ. at 10 μM (human A2A AR) | inhibition at 10 µM (human A1AR) | Compound | affinity to orthosteric versus allosteric binding sites (selective affinity) (human A3AR)
– | 5.22 ± 0.32 µM | -4.1% | 87% | 1.19 ± 0.107 µM | 153 ± 4% | 128 ± 4% | 125 to 126 °C | – | – | Cc1ccc(Nc2nc3ccccc3c3[nH]c(C4CCCC4)nc23)cc1 [Compound 31, N-(4-Methyl-phenyl)-2-cyclopentyl-1H-imidazo[4,5-c]quinolin-4-amine] | –
4.17 ± 0.73 µM | > 10 µM | 7.3% | 92% | 0.41 ± 0.064 µM | 166 ± 11% | 132 ± 4% | 106 to 107 °C | (16%) | – | COc1ccc(Nc2nc3ccccc3c3[nH]c(C4CCCC4)nc23)cc1 [Compound 32, N-(4-Methoxy-phenyl)-2-cyclopentyl-1H-imidazo[4,5-c]quinolin-4-amine] | –
> 10 µM | > 10 µM | -10.2% | 82% | 1.61 ± 0.55 µM | 159 ± 5% | 136 ± 3% | 189 to 190 °C | (17%) | 22% | Clc1ccc(Nc2nc3ccccc3c3[nH]c(C4CCCC4)nc23)cc1 [Compound 34, N-(4-Chloro-phenyl)-2-cyclopentyl-1H-imidazo[4,5-c]quinolin-4-amine] | –

More lines, now with the values behind:

Compound | Ki (human A1AR) | Ki (human A2A AR) | inhibition at 10 µM (hA2BAR) | inhibition at 10 µM (human A3AR) | Ki (human A3AR) | activity at 10 µM (human A3ARs [1]) | % Increase of efficacy at hA3AR at 10 μM (human A3ARs [2]) | melting point | hA2AAR % displ. at 10 μM (human A2A AR) | inhibition at 10 µM (human A1AR) | affinity to orthosteric versus allosteric binding sites (selective affinity) (human A3AR)
c1ccc(Nc2nc3ccccc3c3[nH]c(C4CCCC4)nc23)cc1 [Compound 30, N-Phenyl-2-cyclopentyl-1H-imidazo[4,5-c]quinolin-4-amine, reference compound] | 3.42 ± 0.23 µM | 3.15 ± 0.21 µM | -6.8% | 90% | 0.786 ± 0.067 µM | 174 ± 5% | 138 ± 8% | – | – | – | non-specific affinity
Clc1ccc(Nc2nc3ccccc3c3[nH]c(C4CCCC4)nc23)cc1Cl [Compound 33, N-(3,4-Dichloro-phenyl)-2-cyclopentyl-1H-imidazo[4,5-c]quinolin-4-amine] | > 10 µM | > 10 µM | -6.7% | 67% | 4.69 ± 0.97 µM | 144 ± 9% | 141 ± 5% | 114 to 115 °C | (0%) | 15% | selective affinity
OCc1cccc(Nc2nc3ccccc3c3[nH]c(C4CCCC4)nc23)c1 [Compound 35, N-(3-Methanol-phenyl)-2-cyclopentyl-1H-imidazo[4,5-c]quinolin-4-amine] | – | – | -4.1% | 56% | – | 129 ± 15% | 118 ± 4% | 228 to 230 °C | 49% | 51% | –
c1ccc(CNc2nc3ccccc3c3[nH]c(C4CCCC4)nc23)cc1 [Compound 40, N-(Benzyl)-2-cyclopentyl-1H-imidazo[4,5-c]quinolin-4-amine] | – | – | -3.4% | 86% | – | 145 ± 10% | 147 ± 8% | – | 77% | 28% | –
Clc1ccc(Nc2nc3ccccc3c3[nH]c(C4CCC4)nc23)cc1Cl [Compound 44, N-(3,4-Dichloro-phenyl)-2-cyclobutyl-1H-imidazo[4,5-c]quinolin-4-amine] | – | – | -5.5% | 52% | – | – | 126 ± 3% | 131 to 134 °C | 0.4% | -5% | –
